Patent US20090324754A1, “EUCALYPTUS EXTRACT, METHOD OF PREPARATION AND THERAPEUTIC USES THEREOF” (Pierre Fabre Medicament, priority 2006, published 2009)

Target: T1, serotonin reuptake (Rattus norvegicus, UniProt P31652)
T1 construct: Synapses obtained from rat brains; from tissue; host or cells: rat brain synapses (synaptosomes)
Test: Serotonin (5-HT) reuptake, [3H]-serotonin uptake in rat brain synapses
Type: biochemical
Conditions: 0.3 μg of extract/ml of solution
Method: The uptake tests were carried out in vitro on synapses of rats.
The baseline activity is determined by incubating the same mixture for 15 minutes at 37° C. in the presence of 10 μM imipramine in order to block the reuptake.
Following the incubation, the samples are filtered rapidly in vacuo through glass-fibre filters (GB/B, Packard) and rinsed twice with ice-cold incubation buffer in order to eliminate free [^3H]-serotonin. The filters are dried and the retained radioactivity is measured by means of a scintillation counter (Topcount, Packard) using a scintillation cocktail (Microscint O, Packard).
The results are expressed as a percent inhibition of the control uptake of [^3H]-serotonin (see Table 1)

T1 sequence (P31652 whole entry): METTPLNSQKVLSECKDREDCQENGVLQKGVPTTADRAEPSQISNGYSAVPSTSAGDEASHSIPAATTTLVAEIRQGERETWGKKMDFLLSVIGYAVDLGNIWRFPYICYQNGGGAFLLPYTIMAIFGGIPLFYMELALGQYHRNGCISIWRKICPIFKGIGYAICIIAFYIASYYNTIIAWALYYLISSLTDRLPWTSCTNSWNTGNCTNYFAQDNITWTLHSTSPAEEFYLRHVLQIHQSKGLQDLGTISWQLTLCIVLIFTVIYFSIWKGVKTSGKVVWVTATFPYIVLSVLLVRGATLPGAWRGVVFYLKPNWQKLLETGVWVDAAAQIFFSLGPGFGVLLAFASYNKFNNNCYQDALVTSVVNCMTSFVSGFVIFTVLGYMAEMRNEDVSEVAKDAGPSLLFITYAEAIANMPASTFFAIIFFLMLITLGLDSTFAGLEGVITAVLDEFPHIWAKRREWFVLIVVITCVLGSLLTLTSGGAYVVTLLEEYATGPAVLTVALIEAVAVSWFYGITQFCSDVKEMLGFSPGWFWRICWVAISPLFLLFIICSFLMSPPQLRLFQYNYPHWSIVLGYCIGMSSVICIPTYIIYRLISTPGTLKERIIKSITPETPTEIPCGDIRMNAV

## C=C1CCC2C(C3C1CCC3(C)C(CC(C)C)c1c(O)c(C=O)c(O)c(C=O)c1O)C2(C)C (stereo not shown) [Macrocarpal G, 5-(1-(3,3,11-trimethyl-7-methylene-tricyclo(6.3.0.0(2,4))undec-11-yl)-3-methylbutyl)-2,4,6-trihydroxybenzene-1,3-dicarbaldehyde]
  % inhibition of serotonin reuptake: 103.8%
